Among the data in a flash point compilation (Sun et al. 2020) are flash point values, retold here.

As to `C=CC(=O)OCCCC` [butylacrylate], the flash point amounted to 37 °C. Turning to `CCCCN` [butylamine], the flash point was -7 °C. Turning to `CCCCc1ccccc1` [butylbenzene], the flash point turned out to be 50 °C. With `CCCCOC(=O)c1ccccc1` [butylbenzoate] the figure was 107 °C. Take `CCCCOC(=O)CCC` [butylbutanoate]: the flash point turned out to be 49 °C. With `CCCCC1CCCCC1` [butylcyclohexane] the figure was 48 °C; with `CCCCOCC` [butylethylether], -5 °C. With `C=C(C)C(=O)OCCCC` [butylmethacrylate] the figure was 49 °C. With `CSCCl` [chloromethylmethylsulfide] the figure was 17 °C; with `C[C@@H]1CCCC[C@@H]1C` [cis-1,2-dimethylcyclohexane], 12 °C. On to `C[C@@H]1CCC[C@@H]1C` [cis-1,2-dimethylcyclopentane], for which the flash point was -4 °C. Then `C[C@@H]1CCC[C@H](C)C1` [cis-1,3-dimethylcyclohexane], with 6 °C; and `C/C=C\CC` [cis-2-pentene], with -46 °C; and `CC/C=C\CC` [cis-3-hexene], with -25 °C.

With `CC/C=C\CCCC` [cis-3-octene], the flash point is 14 °C. Turning to `C/C=C\C(C)C` [cis-4-methyl-2-pentene], the flash point was -33 °C. Then `CC(C)c1ccccc1` [cumene], with 31 °C; and `O=C1CCC1` [cyclobutanone], with 10 °C. Then `OC1CCCCCC1` [cycloheptanol], with 71 °C.

`SC1CCCCC1` [cyclohexanethiol] yielded a flash point of 41 °C. Then `C=CC(=O)OC1CCCCC1` [cyclohexylacrylate], with 68 °C; and `c1ccc(C2CCCCC2)cc1` [cyclohexylbenzene], with 98 °C. In turn, `COC1CCCCC1` [cyclohexylmethylether] came in with a flash point of 21 °C. With `C1CCCCCCC1` [cyclooctane] the figure was 28 °C; with `OC1CCCCCCC1` [cyclooctanol], 88 °C.

For `C1CCCC1` [cyclopentane], the flash point is -37 °C. `O=CC1CCCC1` [cyclopentanecarboxaldehyde] showed a flash point of 28 °C. Then `SC1CCCC1` [cyclopentanethiol], with 25 °C; and `O=C1CCCC1` [cyclopentanone], with 26 °C; and `NC1CCCC1` [cyclopentylamine], with 12 °C.

`OCC1CCCC1` [cyclopentylmethanol] showed a flash point of 62 °C. With `N#CC1CC1` [cyclopropanecarbonitrile] the figure was 32 °C.

As to `CC(=O)C1CC1` [cyclopropylmethylketone], the flash point worked out at 13 °C. Then `CCCCCCCCCCOC=O` [decylformate], with 100 °C; and `CCC(C)NC(C)CC` (stereo unspecified) [di-sec-butylamine], with 24 °C; and `CCC(C)OC(C)CC` (stereo unspecified) [di-sec-butylether], with 15 °C. With `CC(C)(C)SSC(C)(C)C` [di-tert-butyldisulfide] the figure was 67 °C; with `C=CCSCC=C` [diallylsulfide], 23 °C.

Regarding `CCCCNCCCC` [dibutylamine], the flash point was 47 °C. Then `CCCCSSCCCC` [dibutyldisulfide], with 93 °C; and `CCCCSCCCC` [dibutylsulfide], with 60 °C. Then `CCNCC` [diethylamine], with -23 °C. In turn, `OCCOCCO` [diethyleneglycol] registered a flash point of 124 °C. With `CCOC(=O)c1ccccc1C(=O)OCC` [diethylphthalate] the figure was 160 °C; with `CC(C)CCOCCC(C)C` [diisopentylether], 46 °C.

On to `CC(C)NC(C)C` [diisopropylamine], for which the flash point was -7 °C.

Consider `COC(=O)OC` [dimethylcarbonate], for which the flash point worked out at 14 °C. With `CSSC` [dimethyldisulfide] the figure was 10 °C; with `COC(=O)c1ccccc1C(=O)OC` [dimethylphthalate], 150 °C.

Take `CSC` [dimethylsulfide]: the flash point is -36 °C. `c1ccc(Oc2ccccc2)cc1` [diphenylether]: the flash point was determined as 115 °C.

Take `CCCSSCCC` [dipropyldisulfide]: the flash point came to 66 °C. Then `CCCCCCCCCCCCOC(C)=O` [dodecylacetate], with 120 °C; and `CCOC(C)=O` [ethylacetate], with -4 °C; and `C=CC(=O)OCC` [ethylacrylate], with 8 °C. With `CCC1CCCCC1` [ethylcyclohexane] the figure was 18 °C; with `CCC1CCCC1` [ethylcyclopentane], -4 °C; with `CCOC(=O)CC` [ethylpropanoate], 12 °C. In turn, `CCCSSCC` [ethylpropyldisulfide] showed a flash point of 57 °C.

As for `c1ccoc1` [furan], the flash point is -36 °C.

Compound `CCC(=O)OCc1ccco1` [furfurylpropanoate] gave a flash point of 82 °C. In turn, `CCCCCCC=O` [heptanal] displayed a flash point of 40 °C. Then `CCCCCCC#N` [heptanenitrile], with 58 °C; and `CCCCCCC(=O)OC(=O)CCCCCC` [heptanoicanhydride], with 130 °C; and `CCCCCCCc1ccccc1` [heptylbenzene], with 95 °C. Then `CCCCCC=O` [hexanal], with 25 °C. The compound `CCCCCC#N` [hexanenitrile] returned a flash point of 47 °C. Then `CCCCCCOC(C)=O` [hexylacetate], with 55 °C; and `CCCCCCOC=O` [hexylformate], with 44 °C. Then `Ic1ccccc1` [iodobenzene], with 74 °C. As to `IC1CCCC1` [iodocyclopentane], the flash point stood at 52 °C. With `CCI` [iodoethane] the figure was -5 °C; with `CC(C)COC(=O)C(C)C` [isobutyl2-methylpropanoate], 38 °C. Then `CC(=O)OCC(C)C` [isobutylacetate], with 18 °C; and `CCCC(=O)OCC(C)C` [isobutylbutanoate], with 46 °C.

`C=C(C)C(=O)OCC(C)C` [isobutylmethacrylate] yielded a flash point of 41 °C. With `COCC(C)C` [isobutylmethylether] the figure was -29 °C. As for `C=COCC(C)C` [isobutylvinylether], the flash point was -9 °C. Turning to `CC(=O)OCCC(C)C` [isopentylacetate], the flash point worked out at 36 °C. `CC(C)CCc1ccccc1` [isopentylbenzene] came in with a flash point of 62 °C. The compound `CCCC(=O)OCCC(C)C` [isopentylbutanoate] registered a flash point of 59 °C. Take `CC(C)CCOC=O` [isopentylformate]: the flash point was 22 °C. For `C=CC(=C)C` [isoprene], the flash point was -48 °C. As for `CC(C)N` [isopropylamine], the flash point was -32 °C. With `CCCC(=O)OC(C)C` [isopropylbutanoate] the figure was 24 °C.

As for `CC(C)C1CCCCC1` [isopropylcyclohexane], the flash point turned out to be 35 °C. Then `CC(C)C1CCCC1` [isopropylcyclopentane], with 14 °C; and `CC(C)OC=O` [isopropylformate], with -14 °C; and `Cc1cccc(O)c1` [m-cresol], with 86 °C.

For `CCCc1cccc(C)c1` [m-propyltoluene], the flash point amounted to 52 °C. Then `Cc1cccc(C)c1` [m-xylene], with 25 °C. Then `COC(=O)C(C)C` [methyl2-methylpropanoate], with 3 °C. `COC(C)=O` [methylacetate]: the flash point is -13 °C. `C=CC(=O)OC` [methylacrylate]: the flash point was -3 °C. With `CCCCCC(=O)OC` [methylhexanoate] the figure was 41 °C. With `CCCCCCCC(=O)OC` [methyloctanoate] the figure was 69 °C; with `CCC(C)(C)OC` [methyltert-pentylether], -7 °C; with `C1COCCN1` [morpholine], 31 °C.

`CC(C)(C)Cc1ccccc1` [neopentylbenzene] yielded a flash point of 50 °C. With `O=[N+]([O-])C1CCCCC1` [nitrocyclohexane] the figure was 81 °C; with `O=[N+]([O-])C1CCCC1` [nitrocyclopentane], 67 °C. `CC[N+](=O)[O-]` [nitroethane] returned a flash point of 28 °C. Then `CCCCCCCCC#N` [nonanenitrile], with 82 °C; and `CCCCCCCCCOC(C)=O` [nonylacetate], with 91 °C. `CCCCCCCCCN` [nonylamine] registered a flash point of 74 °C. With `CCCCCCCCCOC=O` [nonylformate] the figure was 88 °C; with `CCc1ccccc1CC` [o-diethylbenzene], 55 °C; with `CCCCCCCC#N` [octanenitrile], 74 °C.

Turning to `CCc1ccc(C)cc1` [p-ethyltoluene], the flash point stood at 36 °C. As to `Cc1ccc(C)cc1` [p-xylene], the flash point is 25 °C. Then `CCCCC=O` [pentanal], with 8 °C.
